In PubChem BioAssay AID1259407 (Chemical Carcinogenesis Research Information System (CCRIS), 2018):
Calls of active or inactive are those of the source. No rule for the calls is given here.

Test system: CCRIS mutagenicity, Ames/micronucleus/aberration tests
Test: CCRIS mutagenicity studies
[1] = Test System: AMES SALMONELLA TYPHIMURIUM, Strain/Indicator: TA98, Metabolic Activation: NONE, Method: STANDARD PLATE
[2] = Test System: AMES SALMONELLA TYPHIMURIUM, Strain/Indicator: TA100, Metabolic Activation: NONE, Method: STANDARD PLATE
[3] = Test System: AMES SALMONELLA TYPHIMURIUM, Strain/Indicator: TA1535, Metabolic Activation: NONE, Method: STANDARD PLATE
[4] = Test System: AMES SALMONELLA TYPHIMURIUM, Strain/Indicator: TA1537, Metabolic Activation: NONE, Method: STANDARD PLATE
[5] = Test System: AMES SALMONELLA TYPHIMURIUM, Strain/Indicator: TA100, Metabolic Activation: NONE, Method: PREINCUBATION

With `C=C1C[C@@]23CCC4[C@](C)(C(=O)O)CCC[C@@]4(C)[C@@H]2CC[C@]1(OC(C)=O)C3` (some centres not stated) the mutagenic call (Test System: AMES SALMONELLA TYPHIMURIUM, Strain/Indicator: TM677, Metabolic Activation: RAT, LIVER, S-9, AROCLOR 1254, Method: PREINCUBATION) was “inactive; negative”.
In the case of `C=C(C)C(=O)OCCCCC`, the mutagenic call [1] is reported as “inactive; negative”, the mutagenic call (Test System: AMES SALMONELLA TYPHIMURIUM, Strain/Indicator: TA98, Metabolic Activation: RAT, LIVER, S-9, AROCLOR 1254, Method: STANDARD PLATE) is reported as “inactive; negative” and the mutagenic call (Test System: AMES SALMONELLA TYPHIMURIUM, Strain/Indicator: TA98, Metabolic Activation: RAT, LIVER, S-9, SODIUM PHENOBARBITAL, Method: STANDARD PLATE) is reported as “inactive; negative”. For the same compound, the mutagenic call [2] was “inactive; negative”, the mutagenic call (Test System: AMES SALMONELLA TYPHIMURIUM, Strain/Indicator: TA100, Metabolic Activation: RAT, LIVER, S-9, AROCLOR 1254, Method: STANDARD PLATE) was “inactive; negative” and the mutagenic call (Test System: AMES SALMONELLA TYPHIMURIUM, Strain/Indicator: TA100, Metabolic Activation: RAT, LIVER, S-9, SODIUM PHENOBARBITAL, Method: STANDARD PLATE) was “inactive; negative”. For the same compound, the mutagenic call [3] was “inactive; negative”, the mutagenic call (Test System: AMES SALMONELLA TYPHIMURIUM, Strain/Indicator: TA1535, Metabolic Activation: RAT, LIVER, S-9, AROCLOR 1254, Method: STANDARD PLATE) was “inactive; negative” and the mutagenic call (Test System: AMES SALMONELLA TYPHIMURIUM, Strain/Indicator: TA1535, Metabolic Activation: RAT, LIVER, S-9, SODIUM PHENOBARBITAL, Method: STANDARD PLATE) was “inactive; negative”. The mutagenic call [4] was “inactive; negative”, the mutagenic call (Test System: AMES SALMONELLA TYPHIMURIUM, Strain/Indicator: TA1537, Metabolic Activation: RAT, LIVER, S-9, AROCLOR 1254, Method: STANDARD PLATE) was “inactive; negative” and the mutagenic call (Test System: AMES SALMONELLA TYPHIMURIUM, Strain/Indicator: TA1537, Metabolic Activation: RAT, LIVER, S-9, SODIUM PHENOBARBITAL, Method: STANDARD PLATE) was “inactive; negative”. The mutagenic call (Test System: AMES SALMONELLA TYPHIMURIUM, Strain/Indicator: TA1538, Metabolic Activation: NONE, Method: STANDARD PLATE) was “inactive; negative”, the mutagenic call (Test System: AMES SALMONELLA TYPHIMURIUM, Strain/Indicator: TA1538, Metabolic Activation: RAT, LIVER, S-9, AROCLOR 1254, Method: STANDARD PLATE) was “inactive; negative” and the mutagenic call (Test System: AMES SALMONELLA TYPHIMURIUM, Strain/Indicator: TA1538, Metabolic Activation: RAT, LIVER, S-9, SODIUM PHENOBARBITAL, Method: STANDARD PLATE) was “inactive; negative”.
With `CC(C)COC(=O)c1ccccc1N` the mutagenic call (Test System: AMES SALMONELLA TYPHIMURIUM, Strain/Indicator: TA98, Metabolic Activation: HAMSTER, LIVER, S-9, AROCLOR 1254 (10%), Method: PREINCUBATION) was “inactive; negative”, the mutagenic call (Test System: AMES SALMONELLA TYPHIMURIUM, Strain/Indicator: TA98, Metabolic Activation: NONE, Method: PREINCUBATION) was “inactive; negative” and the mutagenic call (Test System: AMES SALMONELLA TYPHIMURIUM, Strain/Indicator: TA98, Metabolic Activation: RAT, LIVER, S-9, AROCLOR 1254 (10%), Method: PREINCUBATION) was “inactive; negative”. For the same compound, the mutagenic call (Test System: AMES SALMONELLA TYPHIMURIUM, Strain/Indicator: TA100, Metabolic Activation: HAMSTER, LIVER, S-9, AROCLOR 1254 (10%), Method: PREINCUBATION) was “inactive; negative”, the mutagenic call [5] was “inactive; negative” and the mutagenic call (Test System: AMES SALMONELLA TYPHIMURIUM, Strain/Indicator: TA100, Metabolic Activation: RAT, LIVER, S-9, AROCLOR 1254 (10%), Method: PREINCUBATION) was “inactive; negative”. The mutagenic call (Test System: AMES SALMONELLA TYPHIMURIUM, Strain/Indicator: TA1535, Metabolic Activation: HAMSTER, LIVER, S-9, AROCLOR 1254 (10%), Method: PREINCUBATION) was “inactive; negative”, the mutagenic call (Test System: AMES SALMONELLA TYPHIMURIUM, Strain/Indicator: TA1535, Metabolic Activation: NONE, Method: PREINCUBATION) was “inactive; negative” and the mutagenic call (Test System: AMES SALMONELLA TYPHIMURIUM, Strain/Indicator: TA1535, Metabolic Activation: RAT, LIVER, S-9, AROCLOR 1254 (10%), Method: PREINCUBATION) was “inactive; negative”. For the same compound, the mutagenic call (Test System: AMES SALMONELLA TYPHIMURIUM, Strain/Indicator: TA1537, Metabolic Activation: HAMSTER, LIVER, S-9, AROCLOR 1254 (10%), Method: PREINCUBATION) was “inactive; negative”, the mutagenic call (Test System: AMES SALMONELLA TYPHIMURIUM, Strain/Indicator: TA1537, Metabolic Activation: NONE, Method: PREINCUBATION) was “inactive; negative” and the mutagenic call (Test System: AMES SALMONELLA TYPHIMURIUM, Strain/Indicator: TA1537, Metabolic Activation: RAT, LIVER, S-9, AROCLOR 1254 (10%), Method: PREINCUBATION) was “inactive; negative”.
With `CNC(=O)c1c(N(C)N=O)ncn1C` the mutagenic call [1] was “inactive; negative”, the mutagenic call (Test System: AMES SALMONELLA TYPHIMURIUM, Strain/Indicator: TA98, Metabolic Activation: S-9, Method: PREINCUBATION) was “inactive; negative” and the mutagenic call (Test System: AMES SALMONELLA TYPHIMURIUM, Strain/Indicator: TA98, Metabolic Activation: S-9, Method: STANDARD PLATE) was “inactive; negative”. The mutagenic call [2] was “inactive; negative”, the mutagenic call (Test System: AMES SALMONELLA TYPHIMURIUM, Strain/Indicator: TA100, Metabolic Activation: S-9, Method: PREINCUBATION) was “inactive; negative” and the mutagenic call (Test System: AMES SALMONELLA TYPHIMURIUM, Strain/Indicator: TA100, Metabolic Activation: S-9, Method: STANDARD PLATE) was “inactive; negative”. The mutagenic call (Test System: AMES SALMONELLA TYPHIMURIUM, Strain/Indicator: TA102, Metabolic Activation: NONE, Method: STANDARD PLATE) was “inactive; negative”, the mutagenic call (Test System: AMES SALMONELLA TYPHIMURIUM, Strain/Indicator: TA102, Metabolic Activation: S-9, Method: PREINCUBATION) was “inactive; negative” and the mutagenic call (Test System: AMES SALMONELLA TYPHIMURIUM, Strain/Indicator: TA102, Metabolic Activation: S-9, Method: STANDARD PLATE) was “inactive; negative”. The mutagenic call [3] was “inactive; negative”, the mutagenic call (Test System: AMES SALMONELLA TYPHIMURIUM, Strain/Indicator: TA1535, Metabolic Activation: S-9, Method: PREINCUBATION) was “inactive; negative” and the mutagenic call (Test System: AMES SALMONELLA TYPHIMURIUM, Strain/Indicator: TA1535, Metabolic Activation: S-9, Method: STANDARD PLATE) was “inactive; negative”. For the same compound, the mutagenic call [4] was “inactive; negative”, the mutagenic call (Test System: AMES SALMONELLA TYPHIMURIUM, Strain/Indicator: TA1537, Metabolic Activation: S-9, Method: PREINCUBATION) was “inactive; negative” and the mutagenic call (Test System: AMES SALMONELLA TYPHIMURIUM, Strain/Indicator: TA1537, Metabolic Activation: S-9, Method: STANDARD PLATE) was “inactive; negative”.
`CCCCCCCCCC(=O)OCCN1CCN(CCCN2c3ccccc3Sc3ccc(C(F)(F)F)cc32)CC1` was tested, and the mutagenic call (Test System: AMES SALMONELLA TYPHIMURIUM, Strain/Indicator: TA98, Metabolic Activation: NONE) was “inactive; negative”, the mutagenic call (Test System: AMES SALMONELLA TYPHIMURIUM, Strain/Indicator: TA98, Metabolic Activation: RAT, LIVER, S-9, PHENOBARBITAL AND 5,6-BENZOFLAVONE) was “inactive; negative” and the mutagenic call [5] was “inactive; negative”. The mutagenic call (Test System: AMES SALMONELLA TYPHIMURIUM, Strain/Indicator: TA100, Metabolic Activation: RAT, LIVER, S-9, PHENOBARBITAL AND 5,6-BENZOFLAVONE) was “inactive; negative”, the mutagenic call (Test System: AMES SALMONELLA TYPHIMURIUM, Strain/Indicator: TA1535, Metabolic Activation: NONE) was “inactive; negative” and the mutagenic call (Test System: AMES SALMONELLA TYPHIMURIUM, Strain/Indicator: TA1535, Metabolic Activation: RAT, LIVER, S-9, PHENOBARBITAL AND 5,6-BENZOFLAVONE) was “inactive; negative”. For the same compound, the mutagenic call (Test System: AMES SALMONELLA TYPHIMURIUM, Strain/Indicator: TA1537, Metabolic Activation: NONE) was “inactive; negative”, the mutagenic call (Test System: AMES SALMONELLA TYPHIMURIUM, Strain/Indicator: TA1537, Metabolic Activation: RAT, LIVER, S-9, PHENOBARBITAL AND 5,6-BENZOFLAVONE) was “inactive; negative” and the mutagenic call (Test System: E. COLI, Strain/Indicator: WP2 UVRA, Metabolic Activation: NONE) was “inactive; negative”. For the same compound, the mutagenic call (Test System: E. COLI, Strain/Indicator: WP2 UVRA, Metabolic Activation: RAT, LIVER, S-9, PHENOBARBITAL AND 5,6-BENZOFLAVONE) was “inactive; negative”.
With `CSCNc1ccccc1` the mutagenic call (Test System: AMES SALMONELLA TYPHIMURIUM, Strain/Indicator: TA100, Metabolic Activation: NONE, Method: SPOT TEST) was “active; positive”, the mutagenic call (Test System: AMES SALMONELLA TYPHIMURIUM, Strain/Indicator: TA100, Metabolic Activation: RAT, LIVER, S-9, AROCLOR 1254, Method: SPOT TEST) was “active; positive” and the mutagenic call (Test System: AMES SALMONELLA TYPHIMURIUM, Strain/Indicator: TA102, Metabolic Activation: NONE, Method: SPOT TEST) was “active; positive”. For the same compound, the mutagenic call (Test System: AMES SALMONELLA TYPHIMURIUM, Strain/Indicator: TA102, Metabolic Activation: RAT, LIVER, S-9, AROCLOR 1254, Method: SPOT TEST) was “active; positive”.
